Experimental data: patent publication US11090304B2 (Amgen Inc., priority 2018, dated 2021)
Where two headings read alike, the source gives them in different places.

How the values were obtained:
[1] = target: GDP-bound KRAS protein (aa 1-169), containing both G12C and C118A amino acid substitutions (Homo sapiens, UniProt P01116, C118A/G12C); assay: Coupled nucleotide exchange assay (SOS-mediated, AlphaScreen); assay type: biochemical; settings: 5 min compound pre-incubation
[2] = system: Phosphorylation of ERK1/2 in MIA PaCa-2 cells; assay: Phospho-ERK1/2 MSD assay in MIA PaCa-2 cells; assay type: cell-based; settings: Homo sapiens, read-out: p-ERK IC50 (2 h; MIA PaCa-2), 2 h compound treatment
In short: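 In the procedure, cells were plated a day ahead at 25,000 per well. Next, a dilution series of compound in growth medium was added for 2 or 4 h. EGF (10 ng/mL) stimulation for 10 min preceded washing and RIPA lysis. Lysate phospho-ERK1/2 was read by MSD, with IC50 derived by 4-parameter logistic analysis.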

Sequence of GDP-bound KRAS protein (aa 1-169), containing both G12C and C118A amino acid substitutions (P01116 1-169 isoform P01116-2 G12C/C118A): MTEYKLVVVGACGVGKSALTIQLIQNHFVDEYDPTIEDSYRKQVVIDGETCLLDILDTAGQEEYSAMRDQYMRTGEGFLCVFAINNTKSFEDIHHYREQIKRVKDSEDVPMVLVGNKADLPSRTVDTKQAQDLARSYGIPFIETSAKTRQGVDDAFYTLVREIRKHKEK

Compound	Coupled exchange IC50 (5 min) [1]	IC50 ([2]; MIA PaCa-2, 2 h) [nM]	IC50 ([1]; read-out: Coupled exchange IC50 (5 min)) [nM]	IC50 [2] [nM]
C=CC(=O)N1CCN(c2nc(=O)n(-c3c(C(C)C)ccnc3C)c3nc(-c4ccccc4F)c(F)cc23)[C@@H](C)C1 [Example 58-16, 6-fluoro-7-(2-fluorophenyl)-1-(2-methyl-4-(2-propanyl)-3-pyridinyl)-4-((2S)-2-methyl-4-(2-propenoyl)-1-piperazinyl)pyrido[2,3-d]pyrimidin-2(1H)-one]	0.553 | nda μM	556	–	–
C=CC(=O)N1CCN(c2nc(=O)n(-c3c(C4CC4)ccnc3C)c3nc(-c4c(O)cccc4F)c(F)cc23)[C@@H](C)C1 [Example 58-19, 1-(4-cyclopropyl-2-methyl-3-pyridinyl)-6-fluoro-7-(2-fluoro-6-hydroxyphenyl)-4-((2S)-2-methyl-4-(2-propenoyl)-1-piperazinyl)pyrido[2,3-d]pyrimidin-2(1H)-one]	0.44 | nda μM	957	–	–
C=CC(=O)N1CCN(c2nc(=O)n(-c3c(CC)ncnc3CC)c3nc(-c4c(O)cccc4F)c(F)cc23)[C@@H](C)C1 [Example 58-23, 1-(4,6-diethyl-5-pyrimidinyl)-6-fluoro-7-(2-fluoro-6-hydroxyphenyl)-4-((2S)-2-methyl-4-(2-propenoyl)-1-piperazinyl)pyrido[2,3-d]pyrimidin-2(1H)-one]	0.732 | nda μM	894	–	–
C=CC(=O)N1CCN(c2nc(=O)n(-c3c(F)cccc3C(C)C)c3nc(-c4c(O)cccc4F)c(F)cc23)[C@@H](C)C1 [Example 59-2, 6-fluoro-7-(2-fluoro-6-hydroxyphenyl)-1-(2-fluoro-6-(2-propanyl)phenyl)-4-((2S)-2-methyl-4-(2-propenoyl)-1-piperazinyl)pyrido[2,3-d]pyrimidin-2(1H)-one]	0.257 | nda μM	737	–	–
C=CC(=O)N1CCN(c2nc(=O)n(-c3c(F)cccc3C(C)C)c3nc(-c4ccccc4F)c(F)cc23)[C@@H](C)C1 [Example 59-3, 6-fluoro-7-(2-fluorophenyl)-1-(2-fluoro-6-(2-propanyl)phenyl)-4-((2S)-2-methyl-4-(2-propenoyl)-1-piperazinyl)pyrido[2,3-d]pyrimidin-2(1H)-one]	0.521 | nda μM	619	–	–
C=CC(=O)N1CCN(c2nc(=O)n(-c3nccnc3C3CC3)c3nc(-c4c(O)cccc4F)c(F)cc23)[C@@H](C)C1 [Example 59-6, 1-(3-cyclopropyl-2-pyrazinyl)-6-fluoro-7-(2-fluoro-6-hydroxyphenyl)-4-((2S)-2-methyl-4-(2-propenoyl)-1-piperazinyl)pyrido[2,3-d]pyrimidin-2(1H)-one]	0.932 | nda μM	659	–	–
C=CC(=O)N1CCN(c2nc(=O)n(C3CCC34CCCC4)c3nc(-c4c(O)cccc4F)c(Cl)cc23)[C@@H](C)C1 (stereo partly drawn) [Example 60-9, 6-chloro-7-(2-fluoro-6-hydroxyphenyl)-4-((2S)-2-methyl-4-(2-propenoyl)-1-piperazinyl)-1-(spiro[3.4]octan-1-yl)pyrido[2,3-d]pyrimidin-2(1H)-one]	0.484 | nda μM	1600	–	–
C=CC(=O)N1CCN(c2nc(=O)n(-c3scnc3CC)c3nc(-c4ccccc4F)c(Cl)cc23)[C@@H](C)C1 [Example 60-21, 6-chloro-1-(4-ethyl-1,3-thiazol-5-yl)-7-(2-fluorophenyl)-4-((2S)-2-methyl-4-(2-propenoyl)-1-piperazinyl)pyrido[2,3-d]pyrimidin-2(1H)-one]	0.35 | nda μM	334	–	–
C=CC(=O)N1CCN(c2nc(=O)n(-c3scnc3CC)c3nc(-c4c(O)cccc4F)c(Cl)cc23)[C@@H](C)C1 [Example 60-22, 6-chloro-1-(4-ethyl-1,3-thiazol-5-yl)-7-(2-fluoro-6-hydroxyphenyl)-4-((2S)-2-methyl-4-(2-propenoyl)-1-piperazinyl)pyrido[2,3-d]pyrimidin-2(1H)-one]	0.159 | nda μM	433	–	–
C=CC(=O)N1CCN(c2nc(=O)n(-c3c(C4CC4)ncnc3C3CC3)c3nc(-c4c(O)cccc4F)c(Cl)cc23)[C@@H](C)C1 [Example 60-29, 6-chloro-1-(4,6-dicyclopropyl-5-pyrimidinyl)-7-(2-fluoro-6-hydroxyphenyl)-4-((2S)-2-methyl-4-(2-propenoyl)-1-piperazinyl)pyrido[2,3-d]pyrimidin-2(1H)-one]	–	–	34	36
C=CC(=O)N1CCN(c2nc(=O)n(-c3c(C)cccc3C(C)C)c3nc(-c4c(O)cccc4Cl)c(F)cc23)[C@@H](C)C1 [Example 68-1, 7-(2-Chloro-6-hydroxyphenyl)-6-fluoro-1-(2-methyl-6-(2-propanyl)phenyl)-4-((2S)-2-methyl-4-(2-propenoyl)-1-piperazinyl)pyrido[2,3-d]pyrimidin-2(1H)-one]	0.111 | nda μM	214	–	–
C=CC(=O)N1CCN(c2nc(=O)n(-c3ccccc3C(C)C)c3nc(-c4nc(N)ccc4Cl)c(Cl)cc23)[C@@H](C)C1 [Example 70-1, 7-(6-Amino-3-chloro-2-pyrindinyl)-6-chloro-4-((2S)-2-methyl-4-(2-propenoyl)-1-piperazinyl)-1-(2-(2-propanyl)phenyl)pyrido[2,3-d]pyrimidin-2(1H)-one]	0.225 | nda μM	225	–	–
C=CC(=O)N1CCN(c2nc(=O)n(-c3ccccc3C(C)C)c3nc(-c4nc(N)cc5ccccc45)c(Cl)cc23)[C@@H](C)C1 [Example 70-2, 7-(3-amino-1-isoquinolinyl)-6-chloro-4-((2S)-2-methyl-4-(2-propenoyl)-1-piperazinyl)-1-(2-(2-propanyl)phenyl)pyrido[2,3-d]pyrimidin-2(1H)-one]	0.184 | nda μM	213	–	–
C=CC(=O)N1CCN(c2nc(=O)n(-c3c(C)cccc3C(C)C)c3nc(-c4nc(N)ccc4Cl)c(Cl)cc23)[C@@H](C)C1 [Example 70-3, 7-(6-amino-3-chloro-2-pyridinyl)-6-chloro-1-(2-methyl-6-(2-propanyl)phenyl)-4-((2S)-2-methyl-4-(2-propenoyl)-1-piperazinyl)pyrido[2,3-d]pyrimidin-2(1H)-one]	0.125 | nda μM	206	–	–
C=CC(=O)N1CCN(c2nc(=O)n(-c3c(C)cccc3C(C)C)c3nc(-c4nc(N)ccc4F)c(Cl)cc23)[C@@H](C)C1 [Example 70-4, 7-(6-amino-3-fluoro-2-pyridinyl)-6-chloro-1-(2-methyl-6-(2-propanyl)phenyl)-4-((2S)-2-methyl-4-(2-propenoyl)-1-piperazinyl)pyrido[2,3-d]pyrimidin-2(1H)-one]	0.398 | nda μM	280	–	–

Continued, in another order:

Coupled exchange IC50 (5 min) [1]	IC50 ([2]; MIA PaCa-2, 2 h) [nM]	Compound	IC50 ([1]; read-out: Coupled exchange IC50 (5 min)) [nM]	IC50 [2] [nM]
0.133 | nda μM	163	C=CC(=O)N1CCN(c2nc(=O)n(-c3c(C4CC4)ncnc3C3CC3)c3nc(-c4c(O)cccc4F)c(F)cc23)[C@@H](C)C1 [Example 59-4, 1-(4,6-dicyclopropyl-5-pyrimidinyl)-6-fluoro-7-(2-fluoro-6-hydroxyphenyl)-4-((2S)-2-methyl-4-(2-propenoyl)-1-piperazinyl)pyrido[2,3-d]pyrimidin-2(1H)-one]	–	–
0.422 | nda μM	204	C=CC(=O)N1CCN(c2nc(=O)n(-c3ncccc3C3CC3)c3nc(-c4ccccc4F)c(Cl)cc23)[C@@H](C)C1 [Example 60-1, 6-Chloro-1-(3-cyclopropyl-2-pyridinyl)-7-(2-fluorophenyl)-4-((2S)-2-methyl-4-(2-propenoyl)-1-piperazinyl)pyrido[2,3-d]pyrimidin-2(1H)-one]	–	–
0.328 | nda μM	156	C=CC(=O)N1CCN(c2nc(=O)n(-c3nccnc3C3CC3)c3nc(-c4ccccc4F)c(Cl)cc23)[C@@H](C)C1 [Example 60-10, 6-chloro-1-(3-cyclopropyl-2-pyrazinyl)-7-(2-fluorophenyl)-4-((2S)-2-methyl-4-(2-propenoyl)-1-piperazinyl)pyrido[2,3-d]pyrimidin-2(1H)-one]	–	–
0.137 | nda μM	156	C=CC(=O)N1CCN(c2nc(=O)n(-c3c(OC)cccc3C(C)C)c3nc(-c4ccccc4F)c(Cl)cc23)[C@@H](C)C1 [Example 60-19, 6-chloro-7-(2-fluorophenyl)-1-(2-methoxy-6-(2-propanyl)phenyl)-4-((2S)-2-methyl-4-(2-propenoyl)-1-piperazinyl)pyrido[2,3-d]pyrimidin-2(1H)-one]	–	–
0.053 | nda μM	62	C=CC(=O)N1CCN(c2nc(=O)n(-c3c(C#N)cccc3C(C)C)c3nc(-c4ccccc4F)c(Cl)cc23)[C@@H](C)C1 [Example 60-20, 2-(6-chloro-7-(2-fluorophenyl)-4-((2S)-2-methyl-4-(2-propenoyl)-1-piperazinyl)-2-oxopyrido[2,3-d]pyrimidin-1(2H)-yl)-3-(2-propanyl)benzonitrile]	–	–
0.101 | nda μM	45	C=CC(=O)N1CCN(c2nc(=O)n(-c3ncccc3C(C)C)c3nc(-c4ccccc4F)c(Cl)cc23)[C@@H](C)C1 [Example 60-28, 6-chloro-7-(2-fluorophenyl)-4-((2S)-2-methyl-4-(2-propenoyl)-1-piperazinyl)-1-(3-(2-propanyl)-2-pyridinyl)pyrido[2,3-d]pyrimidin-2(1H)-one]	–	–
0.218 | nda μM	200	C=CC(=O)N1CCN(c2nc(=O)n(-c3c(C)ncnc3C3CC3)c3nc(-c4ccccc4F)c(Cl)cc23)[C@@H](C)C1 [Example 60-30, 6-chloro-1-(4-cyclopropyl-6-methyl-5-pyrimidinyl)-7-(2-fluorophenyl)-4-((2S)-2-methyl-4-(2-propenoyl)-1-piperazinyl)pyrido[2,3-d]pyrimidin-2(1H)-one]	–	–
